Results reported in patent US5130300A, “Method for enhancing growth of mammary parenchyma” (Monsanto Company, priority 1987, dated 1992).

Assays:
[1] = test system: L6 myoblast; assay: Standard L6 myoblast assays; type: cell-based
Protocol: (§1) 24 pregnant, non-lactating, cross-bred beef cows within their last 40-80 days of gestation were housed in a free-stall facility, fed a ration of alfalfa hay and pelleted concentrate, and administered 10 ml of an excipient (a sesame oil emulsion of the kind used in Examples 4-6) into each half-udder by intramammary infusion through the streak canal on days 1, 3, 5, 7 and 9 of this study. The infusion technique, random assignment of half-udders to treatment or control, and treatment vs. control comparisons were as in Examples 1-2. In the treatment infusions, the excipient contained bovine insulin-like growth factor-I (bIGF-I) prepared by expression in E. coli (Prla Strain 079) of recombinant DNA coding for bIGF-I fused to the "lam" B cell wall protein signal sequence, secretion into the E. coli periplasmic space, and recovery/purification by conventional techniques including gel filtration, cation exchange and reverse-phase HPLC. This bIGF-I had the same amino acid sequence and secondary structure as the AMgen human IGF-I used in Example 20. In standard L6 myoblast assays, its activity was essentially the same (90-123%) as that of the Example 20 hIGF-I. The amounts of bIGF-I in each infusion were: Group 1-2.5 micrograms: Group 2-25 micrograms; Group 3-250 micrograms. Animals were prepared and infused, and their quarter-udder weights and DNA were determined as in Example 3-6.

[2] = test system: Quarter-Udders in Pregnant Beef Cows; assay: Intramammary infusion of bIGF-I, quarter-udder weights and DNA (Examples 14-16); type: in vivo, cross-bred beef cows
Protocol: as §1
When the procedures described for Groups 1-3 were repeated, results were essentially the same. Pooling results from the original study and its replication, it was determined that both treatment and control quarter-udders had grown as follows: […]

[3] = Group 1: total of 12.5 micrograms bIGF-I
[4] = Group 1: total of 12.5 micrograms bIGF-I, sesame oil emulsion
[5] = Group 1: total of 12.5 micrograms bIGF-I, B = excipient only

## bIGF-I: bovine insulin-like growth factor-I prepared by expression in E. coli of recombinant DNA
[1]
  Activity relative to the Example 20 hIGF-I: 90-123%
[2]; [3]
  DNA, Avg % Increase/Animal: 12.5%
  Dry Fat-Free Weight, Avg % Increase/Animal: 16.0%
  Dry Weight, Avg % Increase/Animal: 8.8%
  Wet Weight, Avg % Increase/Animal: 11.0%
[2]; [4]
  DNA, Treatment Mean: 1307 mg
  Dry Fat-Free Weight, Treatment Mean: 54.9 g
  Dry Weight, Treatment Mean: 111.7 g
  Wet Weight, Treatment Mean: 408.4 g
[2]; [5]
  DNA, % Increase, (A-B)/B: 7.2%
  DNA, Mean Increase (A-B): 88 mg
  Dry Fat-Free Weight, % Increase, (A-B)/B: 14.2%
  Dry Fat-Free Weight, Mean Increase (A-B): 6.9 g
  Dry Weight, % Increase, (A-B)/B: 8.7%
  Dry Weight, Mean Increase (A-B): 9.0 g
  Wet Weight, % Increase, (A-B)/B: 10.7%
  Wet Weight, Mean Increase (A-B): 39.4 g
[2]; intramammary infusion, pregnant beef cows
  Plasma levels of bIGF-I during the study: did not increase significantly
[2]; pooled original study and replication, 25 vs 2.5 micrograms bIGF-I per infusion, Combined
  Growth of quarter-udders combined, Medium vs. Low dose: +25%
[2]; pooled original study and replication, 25 vs 2.5 micrograms bIGF-I per infusion, Controls
  Growth of control quarter-udders, Medium vs. Low dose: +27%
[2]; pooled original study and replication, 25 vs 2.5 micrograms bIGF-I per infusion, Treatment
  Growth of treatment quarter-udders, Medium vs. Low dose: +23.1%
[2]; pooled original study and replication, 250 vs 2.5 micrograms bIGF-I per infusion, Combined
  Growth of quarter-udders combined, High vs. Low dose: +67%
[2]; pooled original study and replication, 250 vs 2.5 micrograms bIGF-I per infusion, Controls
  Growth of control quarter-udders, High vs. Low dose: +71.3%
[2]; pooled original study and replication, 250 vs 2.5 micrograms bIGF-I per infusion, Treatment
  Growth of treatment quarter-udders, High vs. Low dose: +62%
[2]; pooled original study and replication, 250 vs 25 micrograms bIGF-I per infusion, Combined
  Growth of quarter-udders combined, High vs. Medium dose: +33%
[2]; pooled original study and replication, 250 vs 25 micrograms bIGF-I per infusion, Controls
  Growth of control quarter-udders, High vs. Medium dose: +34.4%
[2]; pooled original study and replication, 250 vs 25 micrograms bIGF-I per infusion, Treatment
  Growth of treatment quarter-udders, High vs. Medium dose: +31.5%
[2]; two higher doses (Groups 2-3)
  Growth of the non-infused quarters: substantial growth
[2]; two higher doses (Groups 2-3: 25 and 250 micrograms per infusion)
  Growth of treatment quarters vs. control quarters: did not produce consistently greater growth of treatment quarters vs. control quarters
